From patent US20080090834A1, “SELECTIVE AZOLE PDE10A INHIBITOR COMPOUNDS” (Pfizer Inc, priority 2006, published 2008) come the findings set out here.

Where a name gives a salt, the structure may show the parent alone.

Tested on in one data set: not given
Assay: not given
Settings: not given
Broadly, the melting point is the temperature of the solid-liquid transition. Consider `c1ccc(-c2cn(-c3cccnc3)c(-c3ccc(-n4ccc5cccnc54)cc3)n2)nc1` [Example 7, 1-(4-(4-(pyridin-2-yl)-1-(pyridin-3-yl)-1H-imidazol-2-yl)phenyl)-1H-pyrrolo[2,3-b]pyridine], for which the melting point was 174 to 176 °C.

`c1cncc(-n2cc(-c3nccs3)nc2-c2ccc(-n3ccc4cccnc43)cc2)c1` [Example 23, 1-(4-(1-(pyridin-3-yl)-4-(thiazol-2-yl)-1H-imidazol-2-yl)phenyl)-1H-pyrrolo[2,3-b]pyridine]: the melting point lay within 195 to 197 °C.

As to `COc1nc2cccnc2n1-c1ccc(-c2nc(-c3nccs3)cn2-c2ccc(C)nc2)cc1` [Example 81, 2-methoxy-3-(4-(1-(6-methylpyridin-3-yl)-4-(thiazol-2-yl)-1H-imidazol-2-yl)phenyl)-3H-imidazo[4,5-b]pyridine], the melting point lay in the range of 190 to 192 °C.

As to `Cc1ccc(-n2cc(-c3cscn3)nc2-c2ccc(-n3c(C(F)(F)F)nc4cccnc43)cc2)cn1` [Example 99, 2-(trifluoromethyl)-3-(4-(1-(6-methylpyridin-3-yl)-4-(thiazol-4-yl)-1H-imidazol-2-yl)phenyl)-3H-imidazo[4,5-b]pyridine], the melting point lay in the range of 201 to 204 °C.

The next data set concerns the target T1, cloned rat PDE10A full-length enzyme (Rattus norvegicus, UniProt Q9QYJ6).
T1 construct: cloned rat PDE10A full-length enzyme grown in transfected Sf9 insect cells; made in house; host or cells: Sf9 insect cells
T1 sequence (Q9QYJ6 1-794): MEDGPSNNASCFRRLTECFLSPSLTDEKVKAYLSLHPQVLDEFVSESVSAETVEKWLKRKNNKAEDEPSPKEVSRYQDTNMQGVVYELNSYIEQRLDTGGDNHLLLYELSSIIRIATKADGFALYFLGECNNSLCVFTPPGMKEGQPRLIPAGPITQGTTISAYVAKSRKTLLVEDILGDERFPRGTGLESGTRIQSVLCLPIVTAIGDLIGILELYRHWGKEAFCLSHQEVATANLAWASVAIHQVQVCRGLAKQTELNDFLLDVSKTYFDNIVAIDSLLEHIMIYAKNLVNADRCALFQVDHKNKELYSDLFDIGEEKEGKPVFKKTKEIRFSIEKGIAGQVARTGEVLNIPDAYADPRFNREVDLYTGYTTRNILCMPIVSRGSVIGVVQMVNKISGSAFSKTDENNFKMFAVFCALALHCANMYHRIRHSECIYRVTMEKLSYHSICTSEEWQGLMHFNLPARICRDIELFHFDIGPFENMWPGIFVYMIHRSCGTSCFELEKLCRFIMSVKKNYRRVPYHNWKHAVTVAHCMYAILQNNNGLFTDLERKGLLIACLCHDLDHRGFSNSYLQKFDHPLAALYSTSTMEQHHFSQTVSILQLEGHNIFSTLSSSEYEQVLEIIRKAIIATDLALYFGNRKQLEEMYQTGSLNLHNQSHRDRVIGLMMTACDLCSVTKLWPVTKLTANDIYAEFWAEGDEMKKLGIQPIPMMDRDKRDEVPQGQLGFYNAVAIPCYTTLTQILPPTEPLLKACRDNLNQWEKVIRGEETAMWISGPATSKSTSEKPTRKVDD
The data set is described as follows: PDE10 enzyme inhibition, [3H]cAMP scintillation proximity assay. As to conditions: rat PDE10A from Sf9 cells, 20 nM [3H]cAMP, SPA beads, 20 minute incubation at room temperature. Type of data set: biochemical. A digest of the protocol:
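Full-length rat PDE10A from Sf9 cells hydrolysed 20 nM [3H]cAMP in 50 mM Tris, 8.3 mM MgCl2, pH 7.5, 2% DMSO, for 20 minutes at room temperature (<10% conversion). Yttrium silicate SPA beads with zinc sulphate stopped the reaction and captured [3H]AMP; 1 uM papaverine defined non-specific binding, vehicle defined total conversion.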
(Scintillation proximity formats need no separation of bound from free tracer.)
In general, IC50 refers to the point on the concentration scale where inhibition reaches its midpoint. A low value points to greater potency. Take `c1ccc(-c2cn(-c3cccnc3)c(-c3ccc(-n4ccc5cccnc54)cc3)n2)nc1` [Example 7, 1-(4-(4-(pyridin-2-yl)-1-(pyridin-3-yl)-1H-imidazol-2-yl)phenyl)-1H-pyrrolo[2,3-b]pyridine]: half-maximal inhibition (IC50) required 6.84 nM.

Regarding `c1cncc(-n2cc(-c3nccs3)nc2-c2ccc(-n3ccc4cccnc43)cc2)c1` [Example 23, 1-(4-(1-(pyridin-3-yl)-4-(thiazol-2-yl)-1H-imidazol-2-yl)phenyl)-1H-pyrrolo[2,3-b]pyridine], the IC50 was determined as 3.32 nM.

The compound `COc1nc2cccnc2n1-c1ccc(-c2nc(-c3nccs3)cn2-c2ccc(C)nc2)cc1` [Example 81, 2-methoxy-3-(4-(1-(6-methylpyridin-3-yl)-4-(thiazol-2-yl)-1H-imidazol-2-yl)phenyl)-3H-imidazo[4,5-b]pyridine] gave an IC50 of 0.33 nM.

Compound `COc1nc2cccnc2n1-c1ccc(-c2nc(-c3cscn3)cn2-c2ccc(C)nc2)cc1` [Example 96, 2-methoxy-3-(4-(1-(6-methylpyridin-3-yl)-4-(thiazol-4-yl)-1H-imidazol-2-yl)phenyl)-3H-imidazo[4,5-b]pyridine] came in with an IC50 of 0.695 nM. Against the preceding compound, the IC50 is about 2.1-fold higher.

Regarding `Cc1ccc(-n2cc(-c3cncs3)nc2-c2ccc(-n3c(C(C)C)nc4cccnc43)cc2)cn1` [Example 97], the IC50 worked out at 1.96 nM.

In the case of `Cc1ccc(-n2cc(-c3cscn3)nc2-c2ccc(-n3c(C(C)C)nc4cccnc43)cc2)cn1` [Example 98, 2-isopropyl-3-(4-(1-(6-methylpyridin-3-yl)-4-(thiazol-4-yl)-1H-imidazol-2-yl)phenyl)-3H-imidazo[4,5-b]pyridine], the IC50 was determined as 1.13 nM.

`Cc1ccc(-n2cc(-c3cscn3)nc2-c2ccc(-n3c(C(F)(F)F)nc4cccnc43)cc2)cn1` [Example 99, 2-(trifluoromethyl)-3-(4-(1-(6-methylpyridin-3-yl)-4-(thiazol-4-yl)-1H-imidazol-2-yl)phenyl)-3H-imidazo[4,5-b]pyridine]: 1.54 nM corresponded to half-maximal inhibition (IC50).

`CCOc1nc2cccnc2n1-c1ccc(-c2nc(-c3cscn3)cn2-c2ccc(C)nc2)cc1` [Example 100, 2-ethoxy-3-(4-(1-(6-methylpyridin-3-yl)-4-(thiazol-4-yl)-1H-imidazol-2-yl)phenyl)-3H-imidazo[4,5-b]pyridine] had an IC50 of 1.31 nM.

Regarding `COc1ccc(-c2[nH]c(-c3cccs3)nc2-c2ccc(-n3ccc4cc(OC)ccc43)cc2)cc1` [Example 102, 5-methoxy-1-(4-(5-(4-methoxyphenyl)-2-(thiophen-2-yl)-1H-imidazol-4-yl)phenyl)-1H-indole], the IC50 is 15.8 nM.

Compound `COc1ccc(-c2[nH]c(-c3cccs3)nc2-c2ccc(-n3ccc4cccnc43)cc2)cc1` [Example 103] had an IC50 of 2.82 nM. Compared with the last compound, the IC50 is about 5.6-fold lower.

For the compound `On1c(-c2cccs2)nc(-c2ccc(-n3ccc4cccnc43)cc2)c1-c1cnccn1` [Example 104, 1-(4-(1-hydroxy-5-(pyrazin-2-yl)-2-(thiophen-2-yl)-1H-imidazol-4-yl)phenyl)-1H-pyrrolo[2,3-b]pyridine], the IC50 was less than 2.45 nM.

`c1csc(-c2nc(-c3ccc(-n4ccc5cccnc54)cc3)c(-c3cnccn3)[nH]2)c1` [Example 105] yielded an IC50 of 9.21 nM.

The compound `COc1ccc(-c2[nH]c(-c3cccs3)nc2-c2ccc(-n3ccnc3)cc2)cc1` [Example 106, 1-(4-(5-(4-methoxyphenyl)-2-(thiophen-2-yl)-1H-imidazol-4-yl)phenyl)-1H-imidazole] displayed an IC50 of 11 nM.

`CN1CCN(c2ccc(-c3[nH]c(-c4cncs4)nc3-c3ccc(-n4ccc5cccnc54)cc3)cn2)CC1` [Example 107] yielded an IC50 of 2.26 nM.

On to `COc1ccc(-c2[nH]c(-c3cccs3)nc2-c2ccc(-n3cnc(-c4ccccc4)c3)cc2)cc1` [Example 108], for which the IC50 stood at 602 nM. Compared with the last compound, the IC50 is about 270-fold higher.

Regarding `Cc1cc(-c2nc(-c3cccs3)n(O)c2-c2cnccn2)ccc1-n1ccc2cccnc21` [Example 109, 1-(4-(1-hydroxy-5-(pyrazin-2-yl))-2-(thiophen-2-yl)-1H-imidazol-4-yl)-2-methylphenyl-1H-pyrrolo[2,3-b]pyridine], half-maximal inhibition (IC50) was put at 18.4 nM.

For the compound `Cc1cc(-c2nc(-c3cccs3)n(O)c2-c2cnccn2)ccc1-n1ccc2cccnc21` [Example 110, 1-(4-(1-hydroxy-5-(pyrazin-2-yl)-2-(thiophen-2-yl)-1H-imidazol-4-yl)-2-methylphenyl)-1H-pyrrolo[2,3-b]pyridine], inhibition was half-maximal at 36.6 nM (IC50).

`COc1ccc(-c2[nH]c(-c3cccs3)nc2-c2ccc(-n3cnc4ccccc43)cc2)cc1` [Example 111] gave an IC50 of 9.33 nM.

In turn, `Cc1cc(-c2nc(-c3cncs3)[nH]c2-c2cnccn2)ccc1-n1ccc2cccnc21` [Example 112] displayed an IC50 of 175 nM. This IC50 lies about 19-fold higher than the previous one.

`Cc1cc(-c2nc(-c3cccs3)[nH]c2-c2cnccn2)ccc1-n1ccc2cccnc21` [Example 113] had an IC50 of 47.4 nM. Against the preceding compound, the IC50 is about 3.7-fold lower.

`c1ccc(-c2nc(-c3cccnc3)c(-c3ccc(-n4ccc5cccnc54)cc3)[nH]2)nc1` [Example 114, 1-(4-(2-(pyridin-2-yl)-4-(pyridin-3-yl)-1H-imidazol-5-yl)phenyl)-1H-pyrrolo[2,3-b]pyridine] displayed an IC50 of 18.6 nM.

`c1ccc(-c2nc(-c3cccnc3)n(-c3ccc(-n4ccc5cccnc54)cc3)n2)nc1` [Example 115, 1-(4-(3-(pyridin-2-yl)-5-(pyridine-3-yl)-1H-1,2,4-triazol-1-yl)phenyl)-1H-pyrrolo[2,3-b]pyridine] showed an IC50 of 17.9 nM. This IC50 and that of the compound before are within 1.5-fold of each other.

For the compound `COc1nc2cccnc2n1-c1ccc(-c2nc(-c3cncs3)cn2-c2ccc(C)nc2)cc1` [Example 116], the IC50 amounted to 0.305 nM.

In turn, `Cc1ccc(-n2cc(-c3cncs3)nc2-c2ccc(-n3c(C(F)(F)F)nc4cccnc43)cc2)cn1` [Example 117, 2-(trifluoromethyl)-3-(4-(1-(6-methylpyridin-3-yl)-4-(thiazol-5-yl)-1H-imidazol-2-yl)phenyl)-3H-imidazo[4,5-b]pyridine] showed an IC50 of 0.614 nM.

`Cc1ccc(-n2cc(-c3nccs3)nc2-c2ccc(-n3c(=O)[nH]c4cccnc43)cc2)cn1` [Example 118, 3-(4-(1-(6-methylpyridin-3-yl)-4-(thiazol-2-yl)-1H-imidazol-2-yl)phenyl)-1H-imidazo[4,5-b]pyridin-2(3H)-one] had an IC50 of 0.748 nM.

In turn, `c1ccc(-n2nc(-c3ccc(-n4ccc5cccnc54)cc3)c(-c3cccnc3)n2)nc1` [Example 119, 1-(4-(2-(pyridin-2-yl)-5-(pyridin-3-yl)-2H-1,2,3-triazol-4-yl)phenyl)-1H-pyrrolo[2,3-b]pyridine] showed an IC50 of 134 nM.

`c1ccc(-n2cc(-c3cccnc3)c(-c3ccc(-n4ccc5cccnc54)cc3)n2)nc1` [Example 120, 1-(4-(1-(pyridin-2-yl)-4-(pyridin-3-yl)-1H-pyrazol-3-yl)phenyl)-1H-pyrrolo[2,3-b]pyridine]: the midpoint of inhibition, the IC50, lay at 42.9 nM.

For `c1ccc(-c2cc(-c3cccnc3)n(-c3ccc(-n4ccc5cccnc54)cc3)n2)nc1` [Example 121, 1-(4-(3-(pyridin-2-yl)-5-(pyridin-3-yl)-1H-pyrazol-1-yl)phenyl)-1H-pyrrolo)-2,3-b]pyridine bis-TFA salt], the IC50 was found to be 9.29 nM.

The compound `c1ccc(-c2cc(-c3cccnc3)nn2-c2ccc(-n3ccc4cccnc43)cc2)nc1` [Example 122, 1-(4-(5-(pyridin-2-yl)-3-(pyridin-3-yl)-1H-pyrazol-1-yl)phenyl)-1H-pyrrolo[2,3-b]pyridine TFA salt] yielded an IC50 of 21.1 nM.

Regarding `c1ccc(-c2nc(-c3ccc(-n4ccc5cccnc54)cc3)n(-c3cccnc3)n2)nc1` [Preparation 123, 1-(4-(5-(pyridin-2-yl)-2-(pyridin-3-yl)-2H-1,2,4-triazol-3-yl)phenyl)-1H-pyrrolo[2,3-b]pyridine], the IC50 came to 26.2 nM.
